Where two headings read alike, the source gives them in different places.
Columns and labels:
[1] = target: T1, SARS-CoV-2 nsp3-mac1 (Severe acute respiratory syndrome coronavirus 2, UniProt P0DTD1); assay: biochemical; format: biochemical; details: SARS-CoV-2 nsp3 macrodomain TR-FRET single point
[2] = target: T1, SARS-CoV-2 nsp3-mac1; assay: biochemical; set-up: SARS-CoV-2 nsp3 macrodomain TR-FRET single point, per cent inhibition, n=2
[3] = read-out: perc_inhibition_mean, batch_name=ASAP-0000196-002
[4] = read-out: perc_inhibition_mean, batch_name=ASAP-0000199-002
[5] = read-out: perc_inhibition_mean, batch_name=ASAP-0000200-002
[6] = read-out: perc_inhibition_mean, batch_name=ASAP-0000203-002
[7] = read-out: perc_inhibition_mean, batch_name=ASAP-0000242-001
[8] = read-out: perc_inhibition_mean, batch_name=ASAP-0000243-001
[9] = read-out: perc_inhibition_mean, batch_name=ASAP-0000244-001
[10] = read-out: perc_inhibition_mean, batch_name=ASAP-0000245-001
[11] = read-out: perc_inhibition_mean, batch_name=ASAP-0000246-001
[12] = read-out: perc_inhibition_mean, batch_name=ASAP-0000247-001
[13] = read-out: perc_inhibition_mean, batch_name=ASAP-0000248-001
[14] = read-out: perc_inhibition_mean, batch_name=ASAP-0000249-001
[15] = read-out: perc_inhibition_mean, batch_name=ASAP-0000250-001
[16] = read-out: perc_inhibition_mean, batch_name=ASAP-0000251-001
[17] = read-out: perc_inhibition_mean, batch_name=ASAP-0000252-001
[18] = read-out: perc_inhibition_mean, batch_name=ASAP-0000253-001
[19] = read-out: perc_inhibition_mean, batch_name=ASAP-0000254-001
[20] = read-out: perc_inhibition_mean, batch_name=ASAP-0000255-001
[21] = read-out: perc_inhibition_mean, batch_name=ASAP-0000257-001

COC(=O)c1cc2c(Oc3ccccc3C#N)ncnc2[nH]1 [ASAP-0000135]
perc_inhibition_mean ([1]; concentration 50.0 uM): 2.922% | inhibition at 50 µM ([2]; read-out: perc_inhibition_mean, batch_name=ASAP-0000135-001): 2.92%

O=C(Cn1c(=O)[nH]c2ccccc21)Nc1cnc2[nH]ncc2c1 [ASAP-0000137]
perc_inhibition_mean ([1]; concentration 50.0 uM): 1.776% | inhibition at 50 µM ([2]; read-out: perc_inhibition_mean, batch_name=ASAP-0000137-001): 1.78%

O=C(Nc1cnn(C2CCNCC2)c1)c1ncnc2[nH]ccc12 [ASAP-0000138]
perc_inhibition_mean ([1]; concentration 50.0 uM): -1.896% | inhibition at 50 µM ([2]; read-out: perc_inhibition_mean, batch_name=ASAP-0000138-001): -1.9%

CC(C)n1cc(S(=O)(=O)Nc2cnc3[nH]ncc3c2)cn1 [ASAP-0000139]
perc_inhibition_mean ([1]; concentration 50.0 uM): 1.555% | inhibition at 50 µM ([2]; read-out: perc_inhibition_mean, batch_name=ASAP-0000139-001): 1.55%

Cc1cccc(Cl)c1S(=O)(=O)Nc1cnc2[nH]ncc2c1 [ASAP-0000140]
perc_inhibition_mean ([1]; concentration 50.0 uM): -0.254% | inhibition at 50 µM ([2]; read-out: perc_inhibition_mean, batch_name=ASAP-0000140-001): -0.254%

Cn1c(C(=O)NCCn2cccc2)cc2c(=O)n3ccccc3nc21 [ASAP-0000188]
perc_inhibition_mean ([1]; concentration 50.0 uM): 2.262% | inhibition at 50 µM ([2]; read-out: perc_inhibition_mean, batch_name=ASAP-0000188-001): 2.26%

CCn1cc(CNc2cc3c(O)ncnc3cn2)nn1 [ASAP-0000189]
perc_inhibition_mean ([1]; concentration 50.0 uM): 1.671% | inhibition at 50 µM ([2]; read-out: perc_inhibition_mean, batch_name=ASAP-0000189-001): 1.67%

CSc1ccccc1NC(=O)c1ncnc2[nH]ccc12 [ASAP-0000190]
perc_inhibition_mean ([1]; concentration 50.0 uM): -5.805% | inhibition at 50 µM ([2]; read-out: perc_inhibition_mean, batch_name=ASAP-0000190-001): -5.8%

CSc1cccc(NC(=O)c2ncnc3[nH]ccc23)c1 [ASAP-0000192]
perc_inhibition_mean ([1]; concentration 50.0 uM): -4.669% | inhibition at 50 µM ([2]; read-out: perc_inhibition_mean, batch_name=ASAP-0000192-001): -4.67%

OC[C@@]1(Cc2ccc(F)cc2)CCN(c2ncnc3[nH]ccc23)C1 [ASAP-0000194]
perc_inhibition_mean ([1]; concentration 50.0 uM): 5.07% | inhibition at 50 µM ([2]; read-out: perc_inhibition_mean, batch_name=ASAP-0000194-001): 5.07%

Cc1ncc(NCc2cnc3c(c2)NC(=O)CO3)cc1Cl [ASAP-0000195]
perc_inhibition_mean ([1]; concentration 50.0 uM): -0.368% | inhibition at 50 µM ([2]; read-out: perc_inhibition_mean, batch_name=ASAP-0000195-001): -0.368%

c1cc(-c2nnc(Sc3ncnc4[nH]ccc34)[nH]2)ccn1 [ASAP-0000196]
perc_inhibition_mean ([1]; concentration 50.0 uM): 5.47% | perc_inhibition_mean ([1]; concentration 50.0 uM, n=2): 10.682% | perc_inhibition_mean ([1]; concentration 100.0 uM, n=2): 3.318% | inhibition at 50 µM ([2]; read-out: perc_inhibition_mean, batch_name=ASAP-0000196-001): 5.47% | inhibition at 50 µM [2, 3]: 10.7% | inhibition at 100 µM [2, 3]: 3.32%

c1coc(CNc2ncnc3[nH]cnc23)c1 [ASAP-0000198]
perc_inhibition_mean ([1]; concentration 50.0 uM): 2.634% | inhibition at 50 µM ([2]; read-out: perc_inhibition_mean, batch_name=ASAP-0000198-001): 2.63%

c1nc(-c2nc(-c3cc(C4CC4)[nH]n3)no2)c2cc[nH]c2n1 [ASAP-0000199]
perc_inhibition_mean ([1]; concentration 50.0 uM): -2.809% | perc_inhibition_mean ([1]; concentration 50.0 uM, n=2): -4.799% | perc_inhibition_mean ([1]; concentration 100.0 uM, n=2): -2.454% | inhibition at 50 µM ([2]; read-out: perc_inhibition_mean, batch_name=ASAP-0000199-001): -2.81% | inhibition at 50 µM [2, 4]: -4.8% | inhibition at 100 µM [2, 4]: -2.45%

Cc1cc(C(F)(F)F)nn1CCNc1ncnc2[nH]ccc12 [ASAP-0000200]
perc_inhibition_mean ([1]; concentration 50.0 uM): 4.602% | perc_inhibition_mean ([1]; concentration 50.0 uM, n=2): -3.037% | perc_inhibition_mean ([1]; concentration 100.0 uM, n=2): -2.206% | inhibition at 50 µM ([2]; read-out: perc_inhibition_mean, batch_name=ASAP-0000200-001): 4.6% | inhibition at 50 µM [2, 5]: -3.04% | inhibition at 100 µM [2, 5]: -2.21%

CC[C@@H]1C[C@@H](C(=O)Nc2ncnc3[nH]c(C)c(C)c23)CCO1 [ASAP-0000201]
perc_inhibition_mean ([1]; concentration 50.0 uM): 12.08% | inhibition at 50 µM ([2]; read-out: perc_inhibition_mean, batch_name=ASAP-0000201-001): 12.1%

COCc1cc(CNc2cc3c(O)ncnc3cn2)no1 [ASAP-0000202]
perc_inhibition_mean ([1]; concentration 50.0 uM): 3.308% | inhibition at 50 µM ([2]; read-out: perc_inhibition_mean, batch_name=ASAP-0000202-001): 3.31%

Cc1ccc(-c2n[nH]cc2CNc2cnc3[nH]ncc3c2)o1 [ASAP-0000203]
perc_inhibition_mean ([1]; concentration 50.0 uM): 7.232% | perc_inhibition_mean ([1]; concentration 50.0 uM, n=2): -21.592% | perc_inhibition_mean ([1]; concentration 100.0 uM, n=2): -24.84% | inhibition at 50 µM ([2]; read-out: perc_inhibition_mean, batch_name=ASAP-0000203-001): 7.23% | inhibition at 50 µM [2, 6]: -21.6% | inhibition at 100 µM [2, 6]: -24.8%

Cn1cnc2c(Nc3cncc(CN)c3)nc(N)nc21 [ASAP-0000242]
perc_inhibition_mean ([1]; concentration 50.0 uM): -14.217% | perc_inhibition_mean ([1]; concentration 100.0 uM): -28.278% | inhibition at 50 µM [2, 7]: -14.2% | inhibition at 100 µM [2, 7]: -28.3%

CO[C@@]1(C(=O)O)CCN(C(=O)c2ncnc3[nH]ccc23)C1 [ASAP-0000243]
perc_inhibition_mean ([1]; concentration 50.0 uM): -4.181% | perc_inhibition_mean ([1]; concentration 100.0 uM): -3.71% | inhibition at 50 µM [2, 8]: -4.18% | inhibition at 100 µM [2, 8]: -3.71%

C[C@]1(C(=O)O)CCCN1C(=O)c1ncnc2[nH]ccc12 [ASAP-0000244]
perc_inhibition_mean ([1]; concentration 50.0 uM): -5.285% | perc_inhibition_mean ([1]; concentration 100.0 uM): 5.665% | inhibition at 50 µM [2, 9]: -5.29% | inhibition at 100 µM [2, 9]: 5.67%

FC(F)(F)Oc1ccccc1-c1ncnc2[nH]ccc12 [ASAP-0000245]
perc_inhibition_mean ([1]; concentration 50.0 uM): -3.369% | perc_inhibition_mean ([1]; concentration 100.0 uM): 2.117% | inhibition at 50 µM [2, 10]: -3.37% | inhibition at 100 µM [2, 10]: 2.12%

Clc1cnc(OCCNc2ncnc3[nH]ccc23)c(Cl)c1 [ASAP-0000246]
perc_inhibition_mean ([1]; concentration 50.0 uM): -4.296% | perc_inhibition_mean ([1]; concentration 100.0 uM): -7.687% | inhibition at 50 µM [2, 11]: -4.3% | inhibition at 100 µM [2, 11]: -7.69%

CO[C@@H](CNc1ncnc2[nH]ccc12)c1cccc(Cl)c1 [ASAP-0000247]
perc_inhibition_mean ([1]; concentration 50.0 uM): 4.096% | perc_inhibition_mean ([1]; concentration 100.0 uM): 14.175% | inhibition at 50 µM [2, 12]: 4.1% | inhibition at 100 µM [2, 12]: 14.2%

O=C(NCc1ccc(Cl)cn1)c1ncnc2[nH]ccc12 [ASAP-0000248]
perc_inhibition_mean ([1]; concentration 50.0 uM): -4.958% | perc_inhibition_mean ([1]; concentration 100.0 uM): -2.568% | inhibition at 50 µM [2, 13]: -4.96% | inhibition at 100 µM [2, 13]: -2.57%

OC[C@H](Cc1ccccc1)Nc1ncnc2[nH]ccc12 [ASAP-0000249]
perc_inhibition_mean ([1]; concentration 50.0 uM): -1.29% | perc_inhibition_mean ([1]; concentration 100.0 uM): 8.928% | inhibition at 50 µM [2, 14]: -1.29% | inhibition at 100 µM [2, 14]: 8.93%

CN(Cc1nccn1Cc1ccccc1)c1ncnc2[nH]ccc12 [ASAP-0000250]
perc_inhibition_mean ([1]; concentration 50.0 uM): -7.218% | perc_inhibition_mean ([1]; concentration 100.0 uM): -8.82% | inhibition at 50 µM [2, 15]: -7.22% | inhibition at 100 µM [2, 15]: -8.82%

Clc1cnc(N2CCN(c3ncnc4[nH]ccc34)CC2)c(Cl)c1 [ASAP-0000251]
perc_inhibition_mean ([1]; concentration 50.0 uM): -1.996% | perc_inhibition_mean ([1]; concentration 100.0 uM): -6.565% | inhibition at 50 µM [2, 16]: -2% | inhibition at 100 µM [2, 16]: -6.57%

c1nc(NCc2cnc3sccn23)c2[nH]cnc2n1 [ASAP-0000252]
perc_inhibition_mean ([1]; concentration 50.0 uM): -4.782% | perc_inhibition_mean ([1]; concentration 100.0 uM): 5.65% | inhibition at 50 µM [2, 17]: -4.78% | inhibition at 100 µM [2, 17]: 5.65%

Cc1cc(C(=O)Nc2[nH]nc3nc(O)ccc23)c2c(C)nn(C)c2n1 [ASAP-0000253]
perc_inhibition_mean ([1]; concentration 50.0 uM): -6.166% | perc_inhibition_mean ([1]; concentration 100.0 uM): -3.323% | inhibition at 50 µM [2, 18]: -6.17% | inhibition at 100 µM [2, 18]: -3.32%

Cc1ccc(O)c(CNc2ncnc3[nH]cnc23)n1 [ASAP-0000254]
perc_inhibition_mean ([1]; concentration 50.0 uM): 0.262% | perc_inhibition_mean ([1]; concentration 100.0 uM): 6.284% | inhibition at 50 µM [2, 19]: 0.262% | inhibition at 100 µM [2, 19]: 6.28%

O=C(NCc1cccc(F)n1)c1cnc2nc[nH]c(=O)c2c1 [ASAP-0000255]
perc_inhibition_mean ([1]; concentration 100.0 uM): -14.602% | perc_inhibition_mean ([1]; concentration 50.0 uM, n=2): -14.823% | inhibition at 50 µM [2, 20]: -14.8% | inhibition at 100 µM [2, 20]: -14.6%

C(=C1CCCCC1)c1ncnc2[nH]ccc12 [ASAP-0000257]
perc_inhibition_mean ([1]; concentration 50.0 uM, n=2): -5.46% | perc_inhibition_mean ([1]; concentration 100.0 uM, n=2): 3.464% | inhibition at 50 µM [2, 21]: -5.46% | inhibition at 100 µM [2, 21]: 3.46%

— paper doi:10.1101/2024.08.19.608619, “Discovery of potent SARS-CoV-2 nsp3 macrodomain inhibitors uncovers lack of translation to cellular antiviral response” (bioRxiv, 2024)
